*1 amine or outer side, *2 acyl side, *3 side chain or, on linkers, in order; H or OH if unused. Where a SMILES comes first, the peptide text is derived from it. Side-chain parts run from the residue outwards. [ ]: non-standard residue; d: D form. The star is where a group is joined. Isobutyryl(2-(3-CN-5-F-Ph)) = CC(C)(C(=O)*)c1cc(F)cc(C#N)c1; C20 diacid = O=C(O)CCCCCCCCCCCCCCCCCCC(=O)*; C18 diacid = O=C(O)CCCCCCCCCCCCCCCCC(=O)*; γGlu = O=C(O)[C@H](CCC(=O)[*:2])N[*:1]; X44 = COc1ccc(C(C)(C)C(=O)*)cc1; X30 = CC(C)(C(=O)*)c1ccc(F)cc1; AEEA = NCCOCCOCC(=O)O; Aib = CC(C)(N)C(=O)O; GABA = NCCCC(=O)O; βAla = NCCC(=O)O
Tests used:
Type in all cases: cell-based
GIP receptor [1] = molecular target: T1, GIP receptor (Homo sapiens, UniProt P48546); assay: HitHunter cAMP assay, GIP receptor; settings: for EC50: CHO cells stably expressing GIP receptor, cAMP accumulation, 30 min, read-out: EC50 GIP-1R; for Emax: CHO cells, cAMP, normalized to maximum signal from GIP (high) and DMSO (low), read-out: Emax GIP-1R
T1 sequence (P48546 22-466): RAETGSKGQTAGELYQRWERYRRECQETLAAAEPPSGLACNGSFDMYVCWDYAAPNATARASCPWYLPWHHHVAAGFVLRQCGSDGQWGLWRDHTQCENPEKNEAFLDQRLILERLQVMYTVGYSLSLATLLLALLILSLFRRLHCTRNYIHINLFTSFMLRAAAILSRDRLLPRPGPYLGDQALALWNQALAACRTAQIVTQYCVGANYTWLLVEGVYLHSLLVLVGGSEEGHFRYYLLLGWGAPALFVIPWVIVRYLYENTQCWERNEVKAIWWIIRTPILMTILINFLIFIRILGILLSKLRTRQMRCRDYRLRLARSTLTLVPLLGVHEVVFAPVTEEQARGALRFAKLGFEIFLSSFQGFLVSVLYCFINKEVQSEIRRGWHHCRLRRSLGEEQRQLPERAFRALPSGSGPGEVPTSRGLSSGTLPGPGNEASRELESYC

GLP-1 receptor [2] = molecular target: T2, GLP-1 receptor (Homo sapiens, UniProt P43220); assay: HitHunter cAMP assay, GLP-1 receptor; settings: for EC50: CHO cells stably expressing human GLP-1 receptor, cAMP accumulation, 30 min, read-out: EC50 GLP-1R; for Emax: CHO cells, cAMP, normalized to maximum signal from GLP-1 (high) and DMSO (low), read-out: Emax GLP-1R
T2 sequence (P43220 24-463): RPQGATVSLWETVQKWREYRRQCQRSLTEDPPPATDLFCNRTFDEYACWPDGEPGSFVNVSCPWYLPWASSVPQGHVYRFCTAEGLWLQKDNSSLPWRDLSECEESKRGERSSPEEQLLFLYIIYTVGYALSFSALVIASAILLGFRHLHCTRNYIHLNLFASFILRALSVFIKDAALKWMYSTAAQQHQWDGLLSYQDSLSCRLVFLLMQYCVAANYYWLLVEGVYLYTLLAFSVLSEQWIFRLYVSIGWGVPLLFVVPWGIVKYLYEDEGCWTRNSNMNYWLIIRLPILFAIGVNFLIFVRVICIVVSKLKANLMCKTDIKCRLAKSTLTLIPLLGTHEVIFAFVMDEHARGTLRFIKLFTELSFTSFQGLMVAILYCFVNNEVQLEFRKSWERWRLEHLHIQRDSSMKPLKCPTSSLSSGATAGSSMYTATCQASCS

GIP receptor [3] = molecular target: T1, GIP receptor; assay: PathHunter β-arrestin assay, GIP receptor; set-up: host or cells: PathHunter CHO-K1 GIPR β-Arrestin Cell Line; settings: β-arrestin-2 recruitment, PathHunter CHO-K1 GIPR β-Arrestin Cell Line, 90 min at 37° C.; normalized to GIP; read-out: GIPR β Arrestin EC50
Procedure: β-arrestin-2 recruitment for GLP-1 receptor or GIP receptor was measured using the DiscoverX PathHunter Detection Kit and PathHunter® CHO-K1 GLPIR β-Arrestin Cell Line or PathHunter® CHO-K1 GIPR β-Arrestin Cell Line, respectively). Briefly, cells were grown in Ham's F12 Nutrient Mix with 10% FBS and lifted with Cell dissociation buffer, Enzyme free, PBS based (ThermoFisher). Harvested cells were pelleted and resuspended in Assay Complete Cell Plating Reagent 2 and 5000 cells per well were plated in tissue culture treated 384-well small volume white assay plates. Plates were then incubated at 37° C. and 5% CO2 overnight. The media was then replaced with fresh Assay Complete Cell Plating Reagent 2. Cells were then treated with 10 nl compound in DMSO using an ECHO 550 acoustic dispenser (Labcyte) in a 20-point dose response format in duplicate for 90 min at 37° C. The assay was then completed according to the manufacturer's instructions. Luminescence was measured using a Perkin Elmer Envision plate reader. Raw data was normalized to the maximum signal from GLP-1 or GIP (high) and DMSO (low). Dose response curves were analyzed using GraphPad Prism 9.0.

GLP-1 receptor [4] = molecular target: T2, GLP-1 receptor; assay: PathHunter β-arrestin assay, GLP-1 receptor; set-up: host or cells: PathHunter CHO-K1 GLP1R β-Arrestin Cell Line; settings: β-arrestin-2 recruitment, PathHunter CHO-K1 GLP1R β-Arrestin Cell Line, 90 min at 37° C.; normalized to GLP-1; read-out: GLP-1R β Arrestin EC50

CC[C@H](C)[C@H](NC(=O)[C@H](CC(C)C)NC(=O)[C@H](Cc1c[nH]c2ccccc12)NC(=O)[C@H](CCC(N)=O)NC(=O)[C@@H](NC(=O)[C@H](Cc1ccccc1)NC(=O)[C@H](C)NC(=O)[C@H](CCCCNC(=O)COCCOCCNC(=O)COCCOCCNC(=O)CC[C@H](NC(=O)CCCCCCCCCCCCCCCCCCC(=O)O)C(=O)O)NC(=O)[C@H](CCC(N)=O)NC(=O)[C@H](C)NC(=O)[C@@H](NC(=O)[C@H](CCCCN)NC(=O)[C@H](CC(=O)O)NC(=O)[C@H](CC(C)C)NC(=O)C(C)(C)NC(=O)[C@@H](NC(=O)[C@H](CO)NC(=O)[C@H](Cc1ccc(O)cc1)NC(=O)[C@H](CC(=O)O)NC(=O)[C@H](CO)NC(=O)[C@@H](NC(=O)[C@H](Cc1ccccc1)NC(=O)[C@@H](NC(=O)CNC(=O)[C@H](CCC(=O)O)NC(=O)CCNC(=O)C(C)(C)c1ccc(F)cc1)[C@@H](C)O)[C@@H](C)O)[C@@H](C)CC)[C@@H](C)CC)C(C)C)C(=O)N[C@@H](C)C(=O)NCC(=O)NCC(=O)N1CCC[C@H]1C(=O)N[C@@H](CO)C(=O)N[C@@H](CO)C(=O)NCC(=O)N[C@@H](C)C(=O)N1CCC[C@H]1C(=O)N1CCC[C@H]1C(=O)N1CCC[C@H]1C(=O)N[C@@H](CO)C(N)=O [Compound 210] ({X30-βAla}-EGTFTSDYSI[Aib]LDKIAQK([AEEA-AEEA-γGlu-C20 diacid])AFVQWLIAGGPSSGAPPPS-NH2)
EC50 (GIP receptor [1]): 1 to 10 nM
Emax (GIP receptor [1]): 101%
EC50 (GLP-1 receptor [2]): 0.1 to 1 nM
Emax (GLP-1 receptor [2]): 104%
EC50 (GIP receptor [3]): > 1000 nM
EC50 (GLP-1 receptor [4]): > 1000 nM

CC[C@H](C)[C@H](NC(=O)[C@H](CC(C)C)NC(=O)[C@H](Cc1c[nH]c2ccccc12)NC(=O)[C@H](CCC(N)=O)NC(=O)[C@@H](NC(=O)[C@H](Cc1ccccc1)NC(=O)[C@H](C)NC(=O)[C@H](CCCCNC(=O)COCCOCCNC(=O)COCCOCCNC(=O)CC[C@H](NC(=O)CCCCCCCCCCCCCCCCC(=O)O)C(=O)O)NC(=O)[C@H](CCC(N)=O)NC(=O)[C@H](C)NC(=O)[C@@H](NC(=O)[C@H](CCCCN)NC(=O)[C@H](CC(=O)O)NC(=O)[C@H](CC(C)C)NC(=O)C(C)(C)NC(=O)[C@@H](NC(=O)[C@H](CO)NC(=O)[C@H](Cc1ccc(O)cc1)NC(=O)[C@H](CC(=O)O)NC(=O)[C@H](CO)NC(=O)[C@@H](NC(=O)[C@H](Cc1ccccc1)NC(=O)[C@@H](NC(=O)CNC(=O)[C@H](CCC(=O)O)NC(=O)CCNC(=O)C(C)(C)c1cc(F)cc(C#N)c1)[C@@H](C)O)[C@@H](C)O)[C@@H](C)CC)[C@@H](C)CC)C(C)C)C(=O)N[C@@H](C)C(=O)NCC(=O)NCC(=O)N1CCC[C@H]1C(=O)N[C@@H](CO)C(=O)N[C@@H](CO)C(=O)NCC(=O)N[C@@H](C)C(=O)N1CCC[C@H]1C(=O)N1CCC[C@H]1C(=O)N1CCC[C@H]1C(=O)N[C@@H](CO)C(N)=O [Compound 106] ({Isobutyryl(2-(3-CN-5-F-Ph))-βAla}-EGTFTSDYSI[Aib]LDKIAQK([AEEA-AEEA-γGlu-C18 diacid])AFVQWLIAGGPSSGAPPPS-NH2)
EC50 (GIP receptor [1]): 10 to 100 nM
Emax (GIP receptor [1]): 98%
EC50 (GLP-1 receptor [2]): 0.1 to 1 nM
Emax (GLP-1 receptor [2]): 97%
EC50 (GIP receptor [3]): > 1000 nM
EC50 (GLP-1 receptor [4]): > 1000 nM

CC[C@H](C)[C@H](NC(=O)[C@H](CC(C)C)NC(=O)[C@H](Cc1c[nH]c2ccccc12)NC(=O)[C@H](CCC(N)=O)NC(=O)[C@@H](NC(=O)[C@H](Cc1ccccc1)NC(=O)[C@H](C)NC(=O)[C@H](CCCCNC(=O)COCCOCCNC(=O)COCCOCCNC(=O)CC[C@H](NC(=O)CCCCCCCCCCCCCCCCCCC(=O)O)C(=O)O)NC(=O)[C@H](CCC(N)=O)NC(=O)[C@H](C)NC(=O)[C@@H](NC(=O)[C@H](CCCCN)NC(=O)[C@H](CC(=O)O)NC(=O)[C@H](CC(C)C)NC(=O)C(C)(C)NC(=O)[C@@H](NC(=O)[C@H](CO)NC(=O)[C@H](Cc1ccc(O)cc1)NC(=O)[C@H](CC(=O)O)NC(=O)[C@H](CO)NC(=O)[C@@H](NC(=O)[C@H](Cc1ccccc1)NC(=O)[C@@H](NC(=O)CNC(=O)[C@@H](CC(=O)O)NC(=O)CCCNC(=O)C(C)(C)c1cc(F)cc(C#N)c1)[C@@H](C)O)[C@@H](C)O)[C@@H](C)CC)[C@@H](C)CC)C(C)C)C(=O)N[C@@H](C)C(=O)NCC(=O)NCC(=O)N1CCC[C@H]1C(=O)N[C@@H](CO)C(=O)N[C@@H](CO)C(=O)NCC(=O)N[C@@H](C)C(=O)N1CCC[C@H]1C(=O)N1CCC[C@H]1C(=O)N1CCC[C@H]1C(=O)N[C@@H](CO)C(N)=O [Compound 120] ({Isobutyryl(2-(3-CN-5-F-Ph))-GABA}-[dD]GTFTSDYSI[Aib]LDKIAQK([AEEA-AEEA-γGlu-C20 diacid])AFVQWLIAGGPSSGAPPPS-NH2)
EC50 (GIP receptor [1]): 100 to 1000 nM
Emax (GIP receptor [1]): 40%
EC50 (GLP-1 receptor [2]): 10 to 100 nM
Emax (GLP-1 receptor [2]): 104%
EC50 (GIP receptor [3]): > 1000 nM
EC50 (GLP-1 receptor [4]): > 1000 nM

CC[C@H](C)[C@H](NC(=O)[C@H](CC(C)C)NC(=O)[C@H](Cc1c[nH]c2ccccc12)NC(=O)[C@H](CCC(N)=O)NC(=O)[C@@H](NC(=O)[C@H](Cc1ccccc1)NC(=O)[C@H](C)NC(=O)[C@H](CCCCNC(=O)COCCOCCNC(=O)COCCOCCNC(=O)CC[C@H](NC(=O)CCCCCCCCCCCCCCCCCCC(=O)O)C(=O)O)NC(=O)[C@H](CCC(N)=O)NC(=O)[C@H](C)NC(=O)[C@@H](NC(=O)[C@H](CCCCN)NC(=O)[C@H](CC(=O)O)NC(=O)[C@H](CC(C)C)NC(=O)C(C)(C)NC(=O)[C@@H](NC(=O)[C@H](CO)NC(=O)[C@H](Cc1ccc(O)cc1)NC(=O)[C@H](CC(=O)O)NC(=O)[C@H](CO)NC(=O)[C@@H](NC(=O)[C@H](Cc1ccccc1)NC(=O)[C@@H](NC(=O)CNC(=O)[C@H](CCC(=O)O)NC(=O)CCNC(=O)C(C)(C)c1ccc(OC)cc1)[C@@H](C)O)[C@@H](C)O)[C@@H](C)CC)[C@@H](C)CC)C(C)C)C(=O)N[C@@H](C)C(=O)NCC(=O)NCC(=O)N1CCC[C@H]1C(=O)N[C@@H](CO)C(=O)N[C@@H](CO)C(=O)NCC(=O)N[C@@H](C)C(=O)N1CCC[C@H]1C(=O)N1CCC[C@H]1C(=O)N1CCC[C@H]1C(=O)N[C@@H](CO)C(N)=O [Compound 203] ({X44-βAla}-EGTFTSDYSI[Aib]LDKIAQK([AEEA-AEEA-γGlu-C20 diacid])AFVQWLIAGGPSSGAPPPS-NH2)
EC50 (GIP receptor [1]): 1 to 10 nM
Emax (GIP receptor [1]): 103%
EC50 (GLP-1 receptor [2]): 0.1 to 1 nM
Emax (GLP-1 receptor [2]): 103%
EC50 (GIP receptor [3]): < 1000 nM
EC50 (GLP-1 receptor [4]): > 1000 nM

CC[C@H](C)[C@H](NC(=O)[C@H](CC(C)C)NC(=O)[C@H](Cc1c[nH]c2ccccc12)NC(=O)[C@H](CCC(N)=O)NC(=O)[C@@H](NC(=O)[C@H](Cc1ccccc1)NC(=O)[C@H](C)NC(=O)[C@H](CCCCNC(=O)COCCOCCNC(=O)COCCOCCNC(=O)CC[C@H](NC(=O)CCCCCCCCCCCCCCCCCCC(=O)O)C(=O)O)NC(=O)[C@H](CCC(N)=O)NC(=O)[C@H](C)NC(=O)[C@@H](NC(=O)[C@H](CCCCN)NC(=O)[C@H](CC(=O)O)NC(=O)[C@H](CC(C)C)NC(=O)C(C)(C)NC(=O)[C@@H](NC(=O)[C@H](CO)NC(=O)[C@H](Cc1ccc(O)cc1)NC(=O)[C@H](CC(=O)O)NC(=O)[C@H](CO)NC(=O)[C@@H](NC(=O)[C@H](Cc1ccccc1)NC(=O)[C@@H](NC(=O)CNC(=O)[C@H](CCC(=O)O)NC(=O)CCNC(=O)C(C)(C)c1cc(F)cc(C#N)c1)[C@@H](C)O)C(C)C)[C@@H](C)CC)[C@@H](C)CC)C(C)C)C(=O)N[C@@H](C)C(=O)NCC(=O)NCC(=O)N1CCC[C@H]1C(=O)N[C@@H](CO)C(=O)N[C@@H](CO)C(=O)NCC(=O)N[C@@H](C)C(=O)N1CCC[C@H]1C(=O)N1CCC[C@H]1C(=O)N1CCC[C@H]1C(=O)N[C@@H](CO)C(N)=O [Compound 166] ({Isobutyryl(2-(3-CN-5-F-Ph))-βAla}-EGTFVSDYSI[Aib]LDKIAQK([AEEA-AEEA-γGlu-C20 diacid])AFVQWLIAGGPSSGAPPPS-NH2)
EC50 (GIP receptor [1]): 1 to 10 nM
Emax (GIP receptor [1]): 108%
EC50 (GLP-1 receptor [2]): 10 to 100 nM
Emax (GLP-1 receptor [2]): 77%
EC50 (GIP receptor [3]): < 1000 nM
EC50 (GLP-1 receptor [4]): > 1000 nM

Source: US12281149B2, “Modulators of G-protein coupled receptors” (priority 2021, dated 2025)
